Measurements taken from patent US8552018B2, “Substituted tricyclic compounds as protein kinase inhibitors” (Arizona Board of Regents on behalf of the University of …, priority 2003, dated 2013).
pIC50: −log10 of the molar value.

What was measured:
[1] = system: pancreatic cancer cell lines MIAPaCa-2 and PANC-1; assay: Cancer cell cytotoxicity assay, range over both pancreatic lines; format: cell-based; conditions: potency order
Method: To validate the hypothesis that the designed c-kit/PDGFR tyrosine kinase inhibitors mediate GIST882 cell killing and PDGFR-mediated cell killing of pancreatic cancer cell lines (CFPAC-1, PANC-1 and MIA PaCa-2), an in vitro cytotoxicity assay was performed. The GIST882 cell line used in this study has a c-kit gain-of-function mutation (K642E). […] First the cells were cultured. GIST882 cells were provided by Dr. Jonathan A. Fletcher (Dana-Farber Cancer Institute, Boston, Mass.). PANC-1 and MIAPaCa-2 cells were provided by Dr. Daniel Von Hoff (Arizona Cancer Center, Tucson, Ariz.). […] All the cell lines were incubated in a humidified incubator at 37° C. with 5% CO2 atmosphere.
After incubation for 4 days at 37° C. in a humidified incubator, the cells were fixed with 10% Trichloroacetic acid solution (Catalog No. 490-10, Sigma). Subsequently, they were labeled with 0.04% Sulforhodamine B (S9012, Sigma) in 1% acetic acid. […] The absorbance of each well was read on a plate reader (Wallac Vector^2, PerkinElmer) at the wavelength of 570 nm. Data were expressed as the percentage of survival of control calculated from the absorbance corrected for background absorbance. The surviving percent of cells was determined by dividing the mean absorbance values of the […] by the mean absorbance values of the control and multiplying by 100.

[2] = system: mutant forms of c-Kit; assay: Activity against mutant c-Kit (stated); format: biochemical
[3] = system: mutant forms of PDGFR; assay: Activity against mutant PDGFR (stated); format: biochemical
[4] = system: LNCaP prostate cells; assay: MTT assay; format: cell-based; conditions: Homo sapiens, read-out: IC50 (cell survival reduced to 50% of vehicle-treated controls), FIG. 30
Method: An MTT assay was performed to determine the number of viable cells in each well for each concentration of compound, and also for a set of vehicle controls (DMSO).

[5] = system: c-Met autophosphorylation in NIH 3T3 cells; assay: Immunoblot for phospho-Met; format: cell-based
Method: MP-470 (Compound III-1-3) has inhibitory effects on a number of receptor tyrosine kinases. In order to evaluate these effects at the cellular level, immunoblot analysis was performed on lysates from cells treated with MP470, with or without the addition of the EGFR inhibitor Tarceva®. Lysates were assayed for general tyrosine kinase activity, as well as the specific phosphorylation of c-Met and Akt. Briefly, NIH 3T3 cells were pretreated with drugs as indicated for 4 hours, then treated with pervanadate for a further 30 minutes. Immunoblot detection was carried out with antibodies for phosphotyrosine, phospho-Met and phospho-Akt (S473), as well as total c-Met and Akt. Beta-actin was used as a loading control.

SMILES: S=C(NCc1ccc2c(c1)OCO2)N1CCN(c2ncnc3c2oc2ccccc23)CC1 [HPK56, 4-Benzo[4,5]furo[3,2-d]pyrimidin-4-yl-piperazine-1-carbothioic acid (benzo[1,3]dioxol-5-ylmethyl)-amide]
- pIC50 [1]: 5.52 to 5.68
- activity against mutant forms of c-Kit (in words) [2]: low nanomolar
- activity against mutant forms of PDGFR (in words) [3]: low nanomolar
- pIC50 [4]: ~5.30
- activating autophosphorylation of c-Met ([5]; NIH 3T3, 4 hours, agent alone): reduced
- activating autophosphorylation of c-Met ([5]; NIH 3T3, MP-470 in combination with Tarceva®): reduced
